Test results: PubChem BioAssay (NCI)
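Cultured in 96-well plates, cells were exposed to test compound for 48 hours across five concentrations. TGI denotes the concentration required for complete inhibition of growth.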 Where a SMILES comes first, the peptide text is derived from it. The star is where a group is joined. Cbz = O=C(OCc1ccccc1)*

Legend:
Assay in all cases: DTP human tumour cell line panel, 48 h
SN12C renal = system: SN12C renal
EKVX NSCLC = system: EKVX NSCLC
IGROV1 ovarian = system: IGROV1 ovarian
HCT-116 colon = system: HCT-116 colon
SNB-19 CNS = system: SNB-19 CNS
NCI-H23 lung = system: NCI-H23 lung
OVCAR-3 ovarian = system: OVCAR-3 ovarian
HCT-15 colon = system: HCT-15 colon
SF-268 CNS = system: SF-268 CNS
HOP-92 NSCLC = system: HOP-92 NSCLC
MOLT-4 leukemia = system: MOLT-4 leukemia
SF-539 CNS = system: SF-539 CNS
A549 NSCLC = system: A549 NSCLC
KM12 colon = system: KM12 colon
SK-OV-3 ovarian = system: SK-OV-3 ovarian

SMILES | TGI (SN12C renal) [µM] | TGI (EKVX NSCLC) [µM] | TGI (IGROV1 ovarian) [µM] | TGI (HCT-116 colon) [µM] | TGI (SNB-19 CNS) [µM] | TGI (NCI-H23 lung) [µM] | TGI (OVCAR-3 ovarian) [µM] | TGI (HCT-15 colon) [µM] | TGI (SF-268 CNS) [µM] | TGI (HOP-92 NSCLC) [µM] | TGI (MOLT-4 leukemia) [µM] | TGI (SF-539 CNS) [µM] | TGI (A549 NSCLC) [µM] | TGI (KM12 colon) [µM] | TGI (SK-OV-3 ovarian) [µM]
[C-]#[N+]C1(C(=O)OCC)CC1 | > 100 | > 100 | > 100 | > 100 | > 100 | > 100 | > 100 | > 100 | > 100 | > 100 | > 100 | > 100 | > 100 | – | –
COc1ccc2c(c1)N=C1CSC(c3c(Cl)cccc3[N+](=O)[O-])N1C2 (stereo not given) | > 100 | > 100 | > 100 | > 100 | > 100 | > 100 | – | > 100 | > 100 | > 100 | > 100 | > 100 | > 100 | > 100 | > 100
O=C(CC(C(=O)c1cccs1)c1ccsc1)c1ccco1 (stereo not given) | > 100 | > 100 | > 100 | 56.5 | – | 49.7 | > 100 | 49.5 | 74.2 | > 100 | > 100 | 98.2 | 42.9 | 42.7 | > 100
N#C/C(=C\c1ccc(Br)cc1)c1nc(-c2cc3ccccc3oc2=O)cs1 | > 50 | > 50 | > 50 | > 50 | 24.1 | – | – | > 50 | > 50 | 36.6 | > 50 | 40.4 | > 50 | > 50 | > 50
Nc1cccc(C#Cc2cccc(C#Cc3cccc(N)n3)n2)n1 | > 100 | > 100 | > 100 | > 100 | > 100 | > 100 | > 100 | > 100 | > 100 | > 100 | > 100 | > 100 | – | > 100 | > 100
CC(C)c1ccc2[nH]c(O)c(C3=Nc4ccccc4C3=O)c2c1 | > 100 | 42.8 | 65.8 | 68 | 57.2 | > 100 | 53.8 | > 100 | > 100 | 23.4 | 61.5 | – | > 100 | > 100 | 30.2
CCOC(=O)C(CC(=O)OC)NC(=O)C(CC(=O)OC)NC(=O)C(CC(=O)OC)NC(=O)C(CC(=O)OC)NC(=O)OCc1ccccc1 (stereo not given) (Cbz-D(OMe)D(OMe)D(OMe)D(OMe)-OEt; configuration not given here) | > 100 | > 100 | > 100 | > 100 | > 100 | > 100 | – | > 100 | – | > 100 | > 100 | – | > 100 | > 100 | –
Clc1ccc(-c2nnc(C34CC5CC(CC(C5)C3)C4)o2)cc1 | > 100 | > 100 | > 100 | > 100 | > 100 | > 100 | > 100 | > 100 | > 100 | > 100 | > 100 | > 100 | > 100 | – | > 100
CN(C)CCNC(=O)c1cc(-c2nccn2C)nc2ccccc12 | > 100 | > 100 | > 100 | > 100 | > 100 | > 100 | – | > 100 | > 100 | > 100 | > 100 | > 100 | > 100 | > 100 | –
O=C(n1c(=O)n(-c2ccc(Cl)cc2)c(=O)n1C(=O)C(Cl)(Cl)Cl)C(Cl)(Cl)Cl | > 100 | > 100 | > 100 | > 100 | > 100 | > 100 | > 100 | – | > 100 | > 100 | > 100 | > 100 | > 100 | > 100 | > 100
NS(=O)(=O)c1nnc(/N=C(/CCC(=O)O)C(=O)O)s1 | > 100 | > 100 | > 100 | > 100 | > 100 | > 100 | > 100 | > 100 | – | > 100 | > 100 | > 100 | > 100 | > 100 | > 100
Nc1ccccc1OCc1cc(=O)c(OCc2ccccc2)co1 | 0.823 | > 100 | – | > 100 | > 100 | > 100 | > 100 | > 100 | > 100 | 36.4 | > 100 | 65.1 | > 100 | > 100 | 83.7
O=CC1C[C@@H](N2C(=O)O[C@@H](c3ccccc3)[C@H]2c2ccccc2)[C@@H]1COCc1ccccc1 (stereo not given in full) | 48 | 43.2 | 35.4 | 32.8 | 37.6 | 33.4 | 36.4 | 36.3 | 37.1 | 30.3 | 84.4 | 37 | > 100 | > 100 | –
C/C(=N\NC(=S)NNC(=S)N(C)c1ccccc1)c1ccccn1 | 12.8 | 10.7 | – | > 100 | > 100 | > 100 | > 100 | > 100 | > 89 | 26.6 | – | 11.1 | > 100 | > 100 | > 83.8
CCOC(=O)c1nc2ccccc2nc1Oc1ccc(OC)cc1 | > 100 | > 100 | > 100 | > 100 | > 100 | – | > 100 | > 100 | > 100 | > 100 | > 100 | > 100 | > 100 | > 100 | > 100
O=[N+]([O-])/C=C/COCc1cc2c(cc1Br)OCO2 | 35.7 | 48.8 | > 100 | 34.1 | – | – | 30.3 | 34.3 | 41.4 | 65.3 | > 100 | 63.6 | 38.5 | 33.8 | > 100
CCOC(=O)C(=CNC(=S)Nc1c(CC)cccc1CC)C(=O)OCC | > 100 | > 100 | > 100 | > 100 | > 100 | > 100 | > 100 | – | > 100 | > 100 | > 100 | > 100 | > 100 | > 100 | > 100
